Source: publication PMC6335172 (Acta Physiologica (Oxford, England), 2018)
Several values for one entry are separate records, joined by “and”; a condition that tells them apart may be missing. Equal entries are not always repeated. Where two headings read alike, the source gives them in different places.

What was measured:
[1] = target: wild type human I Ks channel (Kv7.1/KCNE1) (Homo sapiens, UniProt P51787); assay: Two-electrode voltage clamp of I Ks channel; assay type: cell-based; settings: pH 9.0, mean ± SEM; for Max ΔV 0.5 (shift of voltage dependence of activation) / Max I/I 0 (relative increase in K+ current at 0 mV) / Max G max/G max0 (maximal conductance normalized to control): fitted maximum from dose response; for Max ΔV 0.5 (shift of voltage dependence of activation): G-V from tail currents
Sequence of wild type human I Ks channel (Kv7.1/KCNE1) (P51787 whole entry): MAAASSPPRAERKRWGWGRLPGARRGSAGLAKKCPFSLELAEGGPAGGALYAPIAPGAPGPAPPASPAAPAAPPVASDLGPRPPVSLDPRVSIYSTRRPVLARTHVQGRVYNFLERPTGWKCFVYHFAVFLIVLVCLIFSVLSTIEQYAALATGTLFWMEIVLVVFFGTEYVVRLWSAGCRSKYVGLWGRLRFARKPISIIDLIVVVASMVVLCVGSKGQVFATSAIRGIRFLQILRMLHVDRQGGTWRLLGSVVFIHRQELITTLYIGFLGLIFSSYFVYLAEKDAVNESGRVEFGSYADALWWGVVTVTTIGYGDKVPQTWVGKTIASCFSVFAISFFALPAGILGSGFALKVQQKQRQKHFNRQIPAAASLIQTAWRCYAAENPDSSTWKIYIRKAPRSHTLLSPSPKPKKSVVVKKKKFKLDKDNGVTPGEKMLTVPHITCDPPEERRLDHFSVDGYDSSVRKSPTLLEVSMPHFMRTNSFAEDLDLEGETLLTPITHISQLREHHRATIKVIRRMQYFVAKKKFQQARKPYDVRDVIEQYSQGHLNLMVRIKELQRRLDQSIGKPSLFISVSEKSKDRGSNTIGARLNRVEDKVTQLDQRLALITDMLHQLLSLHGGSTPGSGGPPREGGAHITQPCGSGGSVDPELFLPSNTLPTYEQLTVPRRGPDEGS

Kv7.1 channel = settings: Kv7.1 without KCNE1; cited from earlier work
[2] = tested on: I Ks channel (coexpression of Kv7.1 and KCNE1); settings: cited from earlier work; for Effect on the V 0.5 of the I Ks channel at pH 7.5: Kv7.1 co-expressed with KCNE1, pH 7.5
[3] = read-out: K m of ΔV 0.5, Hill fit of dose response
[4] = K m of ΔV 0.5, Hill fit of dose response

| Compound | Max ΔV 0.5 (shift of voltage dependence of activation) [1] [mV] | Max I/I 0 (relative increase in K+ current at 0 mV) [1] | Max G max/G max0 (maximal conductance normalized to control) [1] | EC50 [1, 3] [µM] | EC50 [1, 4] [µM] | EC50 ([1]; read-out: K m of G max, Hill fit of dose response) [µM] | EC50 ([1]; K m of G max, Hill fit of dose response) [µM] | Shift of the voltage dependence of activation (V 0.5) of the Kv7.1 channel (Kv7.1 channel) | Effect on the V 0.5 of the I Ks channel at pH 7.5 [2] | Effect on K+ current when Kv7.1 is co-expressed with KCNE1, pH 7.5 ([2]; pH 7.5) |
| --- | --- | --- | --- | --- | --- | --- | --- | --- | --- | --- |
| CCC=CCC=CCC=CCCCC(=O)O [14:3Δ5,8,11, Tetradecatrienoic acid (5,8,11)] | 0.80 ± 6.5 | 1.1 ± 0.15 | 0.84 ± 0.1 |  |  |  |  |  |  |  |
| CCC=CCC=CCC=CCCCCCC(=O)O [16:3Δ7,10,13, Hexadecatrienoic acid (7,10,13)] | −13.4 ± 0.6 | 2.1 ± 0.02 | 0.9 ± 0.2 | 7.2 ± 0.5 |  |  |  |  |  |  |
| CCCCC/C=C\C/C=C\CCCCCCCC(=O)O [18:2Δ9,12, Linoleic acid (9,12)] | −29.8 ± 1.7 | 3.6 ± 0.6 | 1.06 ± 0.02 |  |  |  |  |  |  |  |
| CC/C=C\C/C=C\C/C=C\C/C=C\C/C=C\CCCC(=O)O [20:5Δ5,8,11,14,17, Eicosapentaenoic acid (5,8,11,14,17)] | −25 ± 4.6 | 2.4 ± 0.05 | 1.0 ± 0.1 |  | 9.8 ± 4.4 |  |  |  |  |  |
| CCC=CCC=CCC=CCC=CCC=CCCCCCC(=O)O [22:5Δ7,10,13,16,19, Docosapentaenoic acid (7,10,13,16,19)] | −4 ± 0.13 | 1.6 ± 0.05 | 1.2 ± 0.01 | 11.1 ± 0.6 |  | 1.2 ± 1.7 |  |  |  |  |
| CC/C=C\C/C=C\C/C=C\C/C=C\C/C=C\C/C=C\CCC(=O)O [22:6Δ4,7,10,13,16,19, Docosahexaenoic acid (4,7,10,13,16,19)] | −20.2 ± 0.1 | 3.2 ± 0.1 and 3.2 ± 0.01 | 1.5 ± 0.2 |  | 3.1 ± 0.1 |  | 1.8 | to more negative voltages | no effect on the V 0.5 | abolished |
| CCCCC/C=C\C/C=C\C/C=C\C/C=C\CCCC(=O)NCCS(=O)(=O)O [N‐AT, N‐arachidonoyl taurine] |  |  |  |  |  |  |  |  | retain the ability to shift the voltage dependence |  |
